Assay results published in patent US9644002B2, “Allosteric modulators of EGFR and constitutively active mutants” (YALE UNIVERSITY, priority 2013, dated 2017).
Entries after “also recorded” stand apart in the source; their conditions may differ. Bridge positions count the residues as written; N and C are the ends. Square brackets hold non-standard residues; d marks the D form. Ends that are not written are not given here. R8 = C=CCCCCCC[C@@](C)(N)C(=O)O; S5 = C=CCCC[C@](C)(N)C(=O)O

How the values were obtained:
wtEGFR = biological target: T1, wtEGFR (Homo sapiens, UniProt P00533); experiment: Sequestration of EGFR from CHO-K1 lysates by biotinylated peptides on streptavidin beads; format: binding; details: 25 μM biotinylated peptide, 1 hour
T1 construct: expressed in transfected cells; host or cells: CHO-K1 (transient transfection; lysate used)
Method: CHO-K1 lysates were treated with 25 μM of each biotinylated peptide shown for 1 hour, then incubated with streptavidin-coated beads overnight. Sequestered proteins were eluted, electrophoresed, and immunoblotted to detect EGFR. Band intensities were measured using ImageJ (Schneider et al., 2012, Nat. Meth., 9: 671).
Two additional experiments were performed to evaluate whether the E1^S-induced viability changes and decreases in EGFR and Erk/Akt phosphorylation resulted from a direct interaction with the EGFR JM segment. […] Each biotinylated analog (25 μM) was incubated for 1 hour with lysates from wtEGFR-expressing cells, and then incubated with Mag-Sepharose Streptavidin Beads overnight. A mock reaction lacking a biotinylated analog was run alongside. After washing, the sequestered proteins were eluted, resolved by SDS-PAGE (10%), probed with a commercial anti-EGFR antibody, visualized using a horseradish peroxidase-tagged mouse anti-rabbit secondary antibody, and quantified with chemiluminescent detection. […] Little or no EGFR was sequestered when no biotinylated peptide was added (mock), providing additional support for a direct interaction between the hydrocarbon-stapled peptide E1^S and the juxtamembrane segment of wild type EGFR.

EGFR = EGFR (Homo sapiens, UniProt P00533); experiment: Immunoblot of EGFR phosphorylation in A431 cells; format: cell-based; details: 10 μM, Akt and Erk1/2 positions
Method: A431 cells were treated with 10 μM of the ligand shown for 2 hours, stimulated with 10 ng/mL EGF, then lysed, immunoblotted, and visualized. Plots illustrate the increase or decrease in the intensity of the indicated phospho-protein band between treated and untreated cells. Error bars representing standard error of the mean over at least 4 trials.
Activation of EGFR upon growth factor binding leads to a well characterized pattern of Tyr and Ser/Thr phosphorylation events that initiate downstream signaling networks (Olayioye, et al., 2000, EMBO J., 19, 3159). Molecules that block growth factor binding to the extracellular domain, or ATP binding to the intracellular kinase domain, inhibit the phosphorylation of both EGFR and downstream factors such as Erk and Akt (Yarden, et al., 2012, Nat. Rev. Cancer, 12, 553). Immunoblots were used to evaluate whether the effects of JM-A-derived ligands on the viability of EGFR-dependent cell lines correlated with their effects on EGFR phosphorylation and the activation of downstream factors. Specifically, phosphorylation was probed at EGFR tyrosines 845, 1045, 1068, 1086, and 1173, as well as for phospho-Akt (Ser473) and phospho-Erk1/2 (T202/Y204) (FIG. 19).

[1] = system: A431, H2030, H3255, H1975 and SK-N-MC cells; experiment: Cell viability across the cell line panel; format: cell-based; details: for effect on cell viability: all cell lines tested, 18 h incubation
Excerpt: Error bars show standard error of the mean.

[2] = system: EGFR CCH-1 juxtamembrane coiled coil; experiment: Bipartite tetracysteine display (ReAsH, TIRF) of intra-dimer coiled coil formation; format: cell-based; details: CHO cells; for change of EGF-induced ReAsH fluorescence: EGFR CCH-1, 1 μM ligand 1 hour, 100 ng/mL EGF
Method: FIG. 21 is a graph depicting the results of example experiments conducted to monitor EGFR intra-dimer coiled coil formation using TIRF and bipartite tetracysteine display. CHO cells were transiently transfected with EGFR CCH-1, treated with 1 μM of the indicated ligand for 1 hour, stimulated with 100 ng/mL EGF for 30 minutes, and labeled with ReAsH (Scheck et al., 2012, ACS Chem Biol, 7: 1367). […] Error bars represent standard error of the mean. *p<0.05, **p<0.01, ***p<0.001, ****p<0.0001, one-way ANOVA with Bonferroni post-analysis accounting for multiple comparisons.
Experiments were conducted using CHO cells expressing an EGFR variant (CCH-1) with a cysteine pair within the JM-A whose location supports ReAsH binding and fluorescence upon EGF-induced coiled coil assembly 24. […] CHO cells transiently expressing the EGFR variant CCH-1 on the cell surface were exposed to native and hydrocarbon-stapled peptides, stimulated with EGF, incubated with ReAsH, and the fluorescence increase due to ReAsH quantified using total internal reflectance fluorescence microscopy (TIR-FM). […] Identical results were observed when cells were treated first with EGF and then with the indicated peptides. None of the peptides tested had any effect on the extent of ReAsH fluorescence in the absence of EGF. […] This work validates the juxtamembrane segment as a viable allosteric target for inhibitor design.

sequestration of full length wild type EGFR from cell lysates (wtEGFR) | Substance | pattern of phosphorylation changes over all probed positions (EGFR) | effect on cell viability [1] | change of EGF-induced ReAsH fluorescence [2] | other results
did not | ^BT1^S: biotinylated analog of T1^S (VRKRT[S5]RRL[S5]QERELVE; staple 6-10 (inferred); also: biotinylated) | – | – | – | –
– | TE-64562: polypeptide containing the EGFR juxtamembrane segment fused to HIV Tat (Boran et al., 2012) (YGRKKRRQRRRVRKRTLRRLLQERELVE) [reference compound] | paralleled | moderate decreases in viability | – | effect on cell viability after 72 h ([1]; 72 h incubation): potency is mitigated significantly
– | JM-WT: unmodified EGFR JM-A peptide VRKRTLRRLLQERELVE (SEQ ID NO: 1) | – | none of the cells are sensitive; also recorded: inability to decrease the viability | unchanged | –
– | E1ΔL^S: hydrocarbon-stapled VRKRZARRAAQXRELVE (SEQ ID NO: 19; E1ΔL), leucines replaced by alanine (VRKR[R8]ARRAAQ[S5]RELVE; staple 5-12) | little or no decrease in phosphorylation at any position | more modest effects on cell viability | significant loss in ReAsH fluorescence | change of EGF-induced ReAsH fluorescence at a lower concentration ([2]; EGFR CCH-1, lower concentration than 1 μM): effectively reduced the ReAsH signal
did not | ^BJM-WT: biotinylated analog of JM-WT (VRKRTLRRLLQERELVE; also: biotinylated) | – | – | – | –

Substance | sequestration of full length wild type EGFR from cell lysates (wtEGFR) | pattern of phosphorylation changes over all probed positions (EGFR) | effect on cell viability [1] | change of EGF-induced ReAsH fluorescence [2] | other results
^BE1ΔL^S: biotinylated analog of E1ΔL^S (VRKR[R8]ARRAAQ[S5]RELVE; staple 5-12; also: biotinylated, site of biotin not given here) | sequestered; also recorded: sequester wtEGFR | – | – | – | –
